Assay results taken from patent US6410558B1, “Fungicides for the control of take-all disease of plants” (Monsanto Technology LLC, priority 1991, dated 2002).

What was measured:
[1] = system: Ggt; test: In vivo Assay: control of Ggt on wheat grown in pots of Ggt-infested soil, root disease rating; parameters: species or system Gaeumannomyces graminis var. tritici; conditions: 0.5 mg active ingredient per pot, 'Bergen' or 'Anza' wheat in Ggt-infested soil, after four weeks, vs untreated control; for pest or weed control at 0.5 mg/pot: Gaeumannomyces graminis, 672 h, read-out: In vivo, percent disease control
Method: Compounds are tested for control of Ggt on ‘Bergen’ or ‘Anza’ varieties of wheat grown in 3-inch square pots containing soil infested with Ggt. The infestation is accomplished by mixing the soil with an inoculum prepared by growing Ggt on ¼ strength potato dextrose agar (4.875 g potato dextrose agar, 5.0 g Bacto agar, 500 mL distilled, deionized water) in plates and using plugs from the plates to infest sterile oats (400 cc whole oats, 350 mL deionized water, autoclaved). After a one-month incubation period at room temperature, the oats are dried and mixed with the soil at 4% v/v. Four wheat seeds are placed on top of the soil in each pot. The test compounds are prepared as an 1:9 acetone/water v/v solution containing 0.18% Tween® 20 to provide a treatment rate of 0.5 mg active ingredient per pot, treated with 3 mL test solution per pot. Five pots are used for each treatment level and the controls, which are untreated, inoculated and non-inoculated pots. After one hour drying time, the seeds are covered with more of the appropriate soil and a layer of vermiculite. The pots are placed in a growth chamber and watered each day. After four weeks, each pot is evaluated for evidence of disease by examination of the seminal roots of each plant under a dissecting microscope. A 0 to 5 rating scale having the following meanings is used:
0=no runner hyphae or lesions present
1=runner hyphae and a few small lesions present on <10% of root system
2=runner hyphae and small lesions present on 10-25% of root system
3=runner hyphae and lesions present on 25-50% of root system
4=runner hyphae and many, large, coalescing lesions on >50% of root system
5=root system and culm completely inundated with lesions and runner hyphae
From each set of five replicates a high and low score is eliminated and a replicate mean is calculated by the average of the remaining three scores. This mean score is then compared to the untreated control score and a percent disease control is calculated.

[2] = system: Gaeumannomyces graminis var. tritici (Ggt); test: In vitro Assay: mycelial growth of Ggt on minimal media agar plates containing test compound; format: cell-based; conditions: dark, 19-20° C., 4 to 5 days, diameter of mycelial growth; for inhibition at 0.1 ppm / inhibition at 1 ppm / inhibition at 10 ppm: Gaeumannomyces graminis; for inhibition at 0.1 ppm: read-out: In vitro (ppm) 0.1, Percent Inhibition; for inhibition at 1 ppm: read-out: In vitro (ppm) 1, Percent Inhibition; for inhibition at 10 ppm: read-out: In vitro (ppm) 10, Percent Inhibition
Outline: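 Ggt mycelial diameter read after 4 to 5 days in darkness at 19-20° C, from three 4-mm plugs placed on Czapek Dox minimal agar containing test compound delivered in acetone. Inhibition expressed as percent versus untreated plates, plug size (4 mm) subtracted from both.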

## CCNC(=O)c1c(C)cccc1C(C)(C)C [Example 8, 2-(1,1-Dimethylethyl)-N-ethyl-6-methylbenzamide]
[1]
  pest or weed control at 0.5 mg/pot: 85%
[2]; 0.1 ppm in minimal media agar
  inhibition at 0.1 ppm: 19%
[2]; 1 ppm in minimal media agar
  inhibition at 1 ppm: 97%
[2]; 10 ppm in minimal media agar
  inhibition at 10 ppm: 100%

## CCNC(=O)c1cccc(F)c1[Si](C)(C)C [Example 12, N-Ethyl-3-fluoro-2-(trimethylsilyl)benzamide]
[1]
  pest or weed control at 0.5 mg/pot: 95%
[2]; 0.1 ppm in minimal media agar
  inhibition at 0.1 ppm: 29%
[2]; 1 ppm in minimal media agar
  inhibition at 1 ppm: 83%
[2]; 10 ppm in minimal media agar
  inhibition at 10 ppm: 100%

## CCCN(CCC)C(=O)c1ccccc1[Si](C)(C)C [Example 13, N,N-Dipropyl-2-(trimethylsilyl)benzamide]
[1]
  pest or weed control at 0.5 mg/pot: 13%
[2]; 0.1 ppm in minimal media agar
  inhibition at 0.1 ppm: 7%
[2]; 1 ppm in minimal media agar
  inhibition at 1 ppm: 17%
[2]; 10 ppm in minimal media agar
  inhibition at 10 ppm: 64%

## C[Si](C)(C)c1cccc(Cl)c1C(=O)Nc1ccccc1 [Example 16, 2-Chloro-N-phenyl-6-(trimethylsilyl)-benzamide]
[1]
  pest or weed control at 0.5 mg/pot: 3%
[2]; 0.1 ppm in minimal media agar
  inhibition at 0.1 ppm: 11%
[2]; 1 ppm in minimal media agar
  inhibition at 1 ppm: 27%
[2]; 10 ppm in minimal media agar
  inhibition at 10 ppm: 76%

## CCCCCCCCNC(=O)c1c(Cl)cccc1[Si](C)(C)C [Example 17, 2-Chloro-N-octyl-6-(trimethylsilyl)-benzamide]
[1]
  pest or weed control at 0.5 mg/pot: < 0%
[2]; 0.1 ppm in minimal media agar
  inhibition at 0.1 ppm: 59%
[2]; 1 ppm in minimal media agar
  inhibition at 1 ppm: 64%
[2]; 10 ppm in minimal media agar
  inhibition at 10 ppm: 64%

## CCN(C(=O)c1c(Cl)cccc1[Si](C)(C)C)C(C)C [Example 18, 2-Chloro-N-ethyl-N-(1-methylethyl)-6-(trimethylsilyl)benzamide]
[1]
  pest or weed control at 0.5 mg/pot: 97%
[2]; 0.1 ppm in minimal media agar
  inhibition at 0.1 ppm: < 0%
[2]; 1 ppm in minimal media agar
  inhibition at 1 ppm: < 0%
[2]; 10 ppm in minimal media agar
  inhibition at 10 ppm: 100%

## CNC(=O)c1c(Cl)cccc1[Si](C)(C)C [Example 19, 2-Chloro-N-methyl-6-(trimethylsilyl)-benzamide]
[1]
  pest or weed control at 0.5 mg/pot: 38%
[2]; 0.1 ppm in minimal media agar
  inhibition at 0.1 ppm: < 0%
[2]; 1 ppm in minimal media agar
  inhibition at 1 ppm: 7%
[2]; 10 ppm in minimal media agar
  inhibition at 10 ppm: 29%

## CCCCNC(=O)c1c(Cl)cccc1[Si](C)(C)C [Example 20, N-Butyl-2-chloro-6-(trimethylsilyl)-benzamide]
[1]
  pest or weed control at 0.5 mg/pot: 36%
[2]; 0.1 ppm in minimal media agar
  inhibition at 0.1 ppm: 7%
[2]; 1 ppm in minimal media agar
  inhibition at 1 ppm: 14%
[2]; 10 ppm in minimal media agar
  inhibition at 10 ppm: 61%

## CC(C)NC(=O)c1c(Cl)cccc1[Si](C)(C)C [Example 21, 2-Chloro-N-(1-methylethyl)-6-(trimethylsilyl) benzarnide]
[1]
  In vivo, percent disease control: 100%
[2]; 0.1 ppm in minimal media agar
  In vitro (ppm) 0.1, Percent Inhibition: 100%
[2]; 1 ppm in minimal media agar
  In vitro (ppm) 1, Percent Inhibition: 100%
[2]; 10 ppm in minimal media agar
  In vitro (ppm) 10, Percent Inhibition: 100%

## CCN(C)C(=O)c1c(Cl)cccc1[Si](C)(C)C [Example 22, 2-Chloro-N-ethyl-N-methyl-6-(trimethylsilyl)benzamide]
[1]
  pest or weed control at 0.5 mg/pot: 91%
[2]; 0.1 ppm in minimal media agar
  inhibition at 0.1 ppm: 13%
[2]; 1 ppm in minimal media agar
  inhibition at 1 ppm: < 0%
[2]; 10 ppm in minimal media agar
  inhibition at 10 ppm: 46%

## C[Si](C)(C)c1cccc(Cl)c1C(=O)NCC(F)(F)F [Example 25, 2-Chloro-N-(2,2,2-trifluoro-ethyl)-6-(trimethylsilyl)-benzamide]
[1]
  pest or weed control at 0.5 mg/pot: 56%
[2]; 0.1 ppm in minimal media agar
  inhibition at 0.1 ppm: 19%
[2]; 1 ppm in minimal media agar
  inhibition at 1 ppm: 15%
[2]; 10 ppm in minimal media agar
  inhibition at 10 ppm: 89%

## CCCNC(=O)c1c(Cl)cccc1[Si](C)(C)C [Example 26, 2-Chloro-N-propyl-6-(trimethylsilyl)benzamide]
[1]
  pest or weed control at 0.5 mg/pot: 99%
[2]; 0.1 ppm in minimal media agar
  inhibition at 0.1 ppm: 95%
[2]; 1 ppm in minimal media agar
  inhibition at 1 ppm: 95%
[2]; 10 ppm in minimal media agar
  inhibition at 10 ppm: 97%

## C[Si](C)(C)c1cccc(Cl)c1C(=O)NCCO [Example 27, 2-Chloro-N-(2-hydroxyethyl)-6-(trimethylsilyl)benzamide]
[1]
  pest or weed control at 0.5 mg/pot: 33%
[2]; 0.1 ppm in minimal media agar
  inhibition at 0.1 ppm: 15%
[2]; 1 ppm in minimal media agar
  inhibition at 1 ppm: 13%
[2]; 10 ppm in minimal media agar
  inhibition at 10 ppm: 64%

## CCC(C)NC(=O)c1c(Cl)cccc1[Si](C)(C)C (centres unmarked) [Example 28, 2-Chloro-N-(1-methylpropyl)-6-(trimethylsilyl)benzamide]
[1]
  pest or weed control at 0.5 mg/pot: 86%
[2]; 0.1 ppm in minimal media agar
  inhibition at 0.1 ppm: 60%
[2]; 1 ppm in minimal media agar
  inhibition at 1 ppm: 100%
[2]; 10 ppm in minimal media agar
  inhibition at 10 ppm: 100%
